Measured values as given in ChEMBL document CHEMBL1152841, “Conformationally constrained analogues of N'-(4-tert-butylbenzyl)-N-(4-methylsulfonylaminobenzyl)thiourea as TRPV1 antagonists” (Eur J Med Chem, 2009).
pEC50, pKi: −log10 of the molar value.

Assays:
[1] = biological target: T1, Transient receptor potential cation channel subfamily V member 1 (Rattus norvegicus, UniProt O35433); assay: Displacement of [3H]resiniferatoxin from rat TRPV1 expressed in CHO cells by scintillation counting; assay type: cell-based
[2] = biological target: Transient receptor potential cation channel subfamily V member 1 (Rattus norvegicus) (UniProt O35433); assay: Agonist activity at rat TRPV1 expressed in CHO cells by 45Ca2+ uptake assay relative to capsaicin; assay type: functional, cell-based
[3] = biological target: T1, Transient receptor potential cation channel subfamily V member 1; assay: Antagonist activity at rat TRPV1 expressed in CHO cells assessed as capsaicin-stimulated 45Ca2+ uptake; assay type: functional, cell-based
[4] = biological target: T1, Transient receptor potential cation channel subfamily V member 1; assay: Agonist activity at rat TRPV1 expressed in CHO cells by 45Ca2+ uptake assay; assay type: functional, cell-based

T1 sequence (O35433 whole entry): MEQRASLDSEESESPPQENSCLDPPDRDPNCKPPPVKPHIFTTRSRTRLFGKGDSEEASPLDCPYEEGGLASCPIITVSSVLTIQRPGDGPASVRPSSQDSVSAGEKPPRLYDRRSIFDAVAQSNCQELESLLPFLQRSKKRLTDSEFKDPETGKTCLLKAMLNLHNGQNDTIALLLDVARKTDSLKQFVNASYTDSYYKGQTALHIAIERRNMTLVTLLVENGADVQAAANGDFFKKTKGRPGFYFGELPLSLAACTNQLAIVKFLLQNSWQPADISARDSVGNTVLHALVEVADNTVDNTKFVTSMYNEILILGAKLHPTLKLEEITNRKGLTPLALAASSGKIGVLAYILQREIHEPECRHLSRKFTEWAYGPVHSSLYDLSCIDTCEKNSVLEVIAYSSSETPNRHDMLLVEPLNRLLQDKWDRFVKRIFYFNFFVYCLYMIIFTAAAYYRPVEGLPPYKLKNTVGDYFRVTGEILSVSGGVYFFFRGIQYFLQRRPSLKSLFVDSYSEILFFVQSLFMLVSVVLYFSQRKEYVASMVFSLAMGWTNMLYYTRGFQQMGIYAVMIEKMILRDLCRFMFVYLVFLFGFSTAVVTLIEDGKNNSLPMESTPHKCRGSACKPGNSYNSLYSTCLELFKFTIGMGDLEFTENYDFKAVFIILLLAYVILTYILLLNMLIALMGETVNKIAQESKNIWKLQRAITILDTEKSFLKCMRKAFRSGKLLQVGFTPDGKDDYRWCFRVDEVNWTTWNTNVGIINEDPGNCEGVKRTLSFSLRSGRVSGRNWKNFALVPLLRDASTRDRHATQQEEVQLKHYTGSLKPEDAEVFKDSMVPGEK
Chain of Transient receptor potential cation channel subfamily V member 1 (Rattus norvegicus) (O35433 whole entry): as above

Row | pEC50 [4] | Compound | pKi [1] | Activity [2] | pKi [3]
1 |  | COc1cc2c(cc1NS(C)(=O)=O)CCCC2NC(=S)NCc1ccc(C(C)(C)C)cc1 (centres undefined) | 5.16 | 14% | 
2 |  | CC(C)(C)c1ccc(CNC(=S)NC2CCCc3cc(NS(C)(=O)=O)ccc32)cc1 (centres undefined) | 5.80 |  | 5.58
3 |  | COc1c(NS(C)(=O)=O)ccc2c1CCC2NC(=S)NCc1ccc(C(C)(C)C)cc1 (centres undefined) | 5.74 |  | 5.77
4 |  | COc1cc2c(cc1NS(C)(=O)=O)CCC2NC(=S)NCc1ccc(C(C)(C)C)cc1 (centres undefined) | 5.47 |  | 4.60
5 | 7.49 | COc1cc(CNC(=S)NCc2ccc(C(C)(C)C)cc2)ccc1NS(C)(=O)=O |  | 17% | 
6 |  | COc1c(NS(C)(=O)=O)ccc2c1CCCC2NC(=S)NCc1ccc(C(C)(C)C)cc1 (centres undefined) | 5.76 |  | 5.33
7 |  | CC(C)(C)c1ccc(CNC(=S)NC2CCc3cc(NS(C)(=O)=O)ccc32)cc1 (centres undefined) | 6.18 |  | 6.13
